The nature of series [1]: Solubility in 10 mM phosphate buffer (pH 7.4). The class given is physicochemical. To be noted: pH 7.4, aqueous buffer, kinetic from dmso stock, 60 minutes at room temperature, filtered, read-out: MTS Solubility in Buffer (pH 7.4). How it is done: Solubility in 10 mM Phosphate Buffer (pH 7.4)
The solubility sample testing of the compounds was performed by in phosphate buffer at pH 7.4 and using HPLC-MS detection. A stock solution of […] in DMSO was prepared for each compound. For the solubility test sample, 100 μL of the stock solution was diluted with 3.9 mL of a 10 mM phosphate buffer at […] to a final concentration of […]. The buffer solution was left to stand for 60 minutes at room temperature and then filtered. The filtrate was analyzed against two calibration points of the same analyte prepared at […] using HPLC-MS. These calibration points were prepared from the same stock solution as the solubility sample by diluting it with DMSO:H2O (1:1) 1:40 and then again 1:10. The chromatographic signal area of the analyte in the solubility sample was then compared to the chromatographic signal area of the two calibration samples.
(§1) The chromatographic separation was performed on a Waters HPLC-MS system using a 50×2.1 mm×Bridge C18 column and a gradient elution of Water with 0.1% formic acid and acetonitrile with 0.1% formic acid. The analytes were analyzed in positive electro-spray mode using the (M+H)^+ in single ion recording.

A further series has as its system Mycobacterium avium. Put plainly: Assay 2: STC colorimetric microplate assay, M. avium. The class given is cell-based.
Series [2] is described as follows: Stability in human plasma. To be noted: room temperature. The class given is in vitro ADME. The procedure: Stability in Mouse and Human Plasma
The stability of the compounds in mouse and human plasma was performed using protein precipitation as sample clean-up and HPLC-MS detection. The plasma stability studies of the compounds was performed at room temperature for up to 4 hours. A stock solution of […] in DMSO was prepared for each compound. For the plasma stability samples, 100 μL of the stock solution was diluted with 3.9 mL of either mouse or human plasma to a final concentration of […]. The plasma was left to equilibrate for 10 minutes at room temperature before the first analysis. For each analyzed time point ([…]) a 100 μL aliquot of the plasma was removed and protein precipitation (PPT) was performed on the aliquot by adding 900 μL of (ACN:DMSO) 95:5. The precipitated sample was shaken for 60 seconds and then centrifuged. The supernatant was transferred to an HPLC vial and analyzed using HPLC-MS. The chromatographic signal area of the samples at the different time points were then compared against each other, by setting the initial analysis at t=0 min as 100% and then calculating the %-value for each subsequent time point.
as §1

Series [3] deals with Bacillus megaterium (BM-11). Put plainly: Assay 1: antimicrobial broth dilution on microtiter plates, Bacillus megaterium. The class given is cell-based. Particulars: Priestia megaterium. How it is done:
The antimicrobial activity of each Example compound was investigated. The Minimal Inhibitory Concentration (MIC—the minimal dose required to inhibit bacterial growth) and the Minimal Bactericidal Concentration (MBC—the minimal dose required to kill bacteria) were measured for each compound for Streptococcus pneumoniae (ATCC49619), Staphylococcus aureus (ATCC29213), Bacillus megaterium (BM-11) and Escherichia coli (D-21) using an antimicrobial broth dilution method on microtiter plates. The Minimal Inhibitory Concentration (MIC) was also measured for each example compound and azithromycin with Mycobacterium avium complex (MAC). […]
The Minimal Inhibitory Concentration (MIC—the minimal dose required to inhibit bacterial growth) and the Minimal Bactericidal Concentration (MBC—the minimal dose required to kill bacteria) were measured for each compound for Streptococcus pneumoniae (ATCC49619), Staphylococcus aureus (ATCC29213), Bacillus megaterium (BM-11) and Escherichia coli (D-21) using an antimicrobial broth dilution method on 96 well microtiter plates. […]
After addition of the bacterial solution, the plates were incubated at 35° C. for 18 h. The bacterial growth of each well was then recorded and then the Minimal Inhibitory Concentration (MIC) and Minimal Bactericidal Concentration ([…]) were determined.
On the technique in general: In broth dilution the organism is exposed to a series of concentrations in liquid medium.

Series [4] has as its system Mycobacterium intracellulare. Put plainly: Assay 2: STC colorimetric microplate assay, M. intracellulare. It counts as cell-based.

Data on 1 compound can be found in patent US11236120B2, “Azithromycin derivatives with epithelial barrier enhancement properties” (EpiEndo Pharmaceuticals ehf, priority 2015, dated 2022).

Values after ≈ are worked out from the molar mass of the structure shown.

With `CC[C@H]1OC(=O)[C@H](C)[C@@H](O[C@H]2C[C@@](C)(OC)[C@@H](O)[C@H](C)O2)[C@H](C)[C@@H](O[C@@H]2O[C@H](C)C[C@H](N(C)C)[C@H]2O)[C@](C)(O)C[C@@H](C)CN(C)[C@H](C)[C@@H](O)[C@]1(C)O` [Azithromycin, (2R,3S,4R,5R,8R,10R,11R,12S,13S,14R)-11-[(2S,3R,4S,6R)-4-(dimethylamino)-3-hydroxy-6-methyl-tetrahydropyran-2-yl]oxy-2-ethyl-3,4,10-trihydroxy-13-[(2R,4R,5S,6S)-5-hydroxy-4-methoxy-4,6-dimethyl-tetrahydropyran-2-yl]oxy-3,5,6,8,10,12,14-heptamethyl-1-oxa-6-azacyclopentadecan-15-one], the solubility at 60 min in series [1] turned out to be 0.26 µM (≈ 0.195 µg/mL). Besides, the MIC against Mycobacterium avium (Mycobacterium avium S1002170205) was 16 µg/mL (≈ 21.4 µM); with Mycobacterium avium (Mycobacterium avium S1003050114) it was 32 µg/mL (≈ 42.7 µM); in series [3] it was 1 µg/mL (≈ 1.34 µM); in series [4] (Mycobacterium intracellulare S1005200118), 32 µg/mL (≈ 42.7 µM); in series [4] (Mycobacterium intracellulare S1305150028), 4 µg/mL (≈ 5.34 µM). In series [2], the “Degradation in Human Plasma at RT” value is given as 6 % per hour. In series [3], this compound returned an MBC of 2 µg/mL (≈ 2.67 µM).

As a reminder, the solubility is the concentration that dissolves in the medium under given conditions. Broadly, the MIC is the least concentration at which growth counts as inhibited. As usually defined, the MBC is the smallest concentration meeting the test's criterion for killing. Lower therefore signals greater bactericidal potency.
